Source: patent US20190119642A1, “METHODS AND COMPOSITIONS RELATING TO HEMATOPOIETIC STEM CELL EXPANSION” (CHILDREN'S MEDICAL CENTER CORPORATION, priority 2016, published 2019)

Test system: CD34+ enriched cord blood cells
Assay: Ex vivo expansion of CD34+ enriched cord blood cells, 12 days in culture with small molecules, flow cytometry
Conditions: for percentage and total number of Lin-CD34+ and Lin- cells: CD34+ cord blood cells cultured in vitro 12 days, FIGS. 21-23
Protocol: CD34+ enriched cord blood cells were obtained from AllCells. Ten thousand cells were cultured in StemSpan SFEMII containing recombinant human SCF, TPO, IL-3 and FLT3L (all at 100 ng/ml). Cells were cultured with cytokine containing media with the vehicle control (DMSO) or the indicated small molecules. Media was changed every three days. On day twelve, cells were harvested, counted, and analyzed by flow cytometry.
Plots show samples previously gated through live (PI-) and singlet gates. Gating strategy for immunophenotypic hematopoietic stem cells (HSCs) defined as Lin−CD34+CD45RA−CD90+ and Lin−CD34+CD45RA−CD90+CD49f+EPCR+ HSCs is shown. Percentages indicate the frequency of the parent (previous) gate.
Plots show samples previously gated through live (PI-) and singlet gates. Gating strategy for immunophenotypic hematopoietic stem cells (HSCs) as Lin−CD34+CD45RA−CD90+ and Lin−CD34+CD45RA−CD90+CD49f+EPCR+ are shown. Percentages indicate the frequency of cells in the parent population.
Depicted is the total number of live cells after 12 days of culturing 10,000 CD34+ enriched cord blood cells in the indicated conditions.
CD34+ cord blood cells were cultured in vitro in the presence of different combinations of compounds as described herein.

With `C[S+]([O-])c1ccc(-c2nc(-c3ccc(F)cc3)c(-c3ccncc3)[nH]2)cc1` (centres unmarked) [A, A83-01] the “percentage and total number of Lin-CD34+ and Lin- cells” value was “increased”.

With `Nc1cccc2c1C(=O)N(C1CCC(=O)NC1=O)C2=O` (centres unmarked) [POM, pomalidomide] the “percentage and total number of Lin-CD34+ and Lin- cells” value was “increased”, the “percentage and total number of Lin-CD45RA-CD90+ HSCs” value (CD34+ cord blood cells, 12 days culture, FIG. 24, 25) was “increased” and the “percentage of Lin-CD45RA-CD90+CD49f+EPCR+ HSCs” value (CD34+ cord blood cells, 12 days culture, FIG. 26, 27) was “increased”.

With `CC(C)n1cnc2c(NCCc3ccc(O)cc3)nc(-c3csc4ccccc34)nc21` [SR1, StemRegenin 1] the “percentage and total number of Lin-CD34+ and Lin- cells” value was “increased”.
